This note sets out measurements from patent US4309342A, “Antibacterial peptides” (Abbott Laboratories, priority 1980, dated 1982).

In one experiment the test system is Bacillus subtilis 9466. The experiment can be described thus: Minimum inhibitory concentration, serial dilution in synthetic bacterial growth medium. It counts as cell-based. The conditions noted are these: 35-37 °C, 16-20 hours, value in parentheses: a higher concentration did not always inhibit growth. The protocol:
(§1) The above fluorinated dipeptides are prepared in sterile concentrated aqueous solutions. Serial dilutions are made to give a range of concentrations of the test substances. Samples of the dilutions are mixed with an appropriate sterile synthetic bacterial growth medium in test tubes. The tubes are then inoculated with an appropriate test organism and incubated at 35°-37° C. for 16-20 hours. […]

The subject of a further experiment is Strep. faecalis 10541. The description is as above. The class given is cell-based. As to conditions: 35-37 °C, 16-20 hours, value in parentheses: a higher concentration did not always inhibit growth. The protocol:
as §1

A further experiment deals with Enterococcus 89. The experiment is described as above. The class given is cell-based. As to conditions: 35-37 °C, 16-20 hours. The protocol:
as §1

For a further experiment, the system named is Staph. aureus Smith. The experiment is described as above. It counts as cell-based. As to conditions: 35-37 °C, 16-20 hours, value in parentheses: a higher concentration did not always inhibit growth. As for the experimental part:
as §1

A further experiment concerns Staph. aureus (Smith). Briefly: In vivo mouse protection test (CD50, 7-day survival after intraperitoneal infection). The arrangement: species or system Charles River mice. As to conditions: peptide alone, subcutaneous, e.g. 1 and 5 hours post-infection, mice infected i.p. with 10-100 x LD50 Staph. aureus (Smith). The protocol: Charles River mice weighing approximately 20 g. each, were infected intraperitoneally with 10-100 times the LD50 of the infecting organism. At predetermined intervals post-infection, e.g., 1 and 5 hours, mice were dosed subcutaneously with graded doses of the new dipeptide, antibiotic and a combination thereof. The number of mice surviving each treatment for 7 days post-infection was observed and the CD50 is calculated. The results using D-cycloserine as an example of the antiobiotic and representative fluorinated dipeptides are shown in Table II, using Staph. aureus (Smith) as the infecting organism. The values are listed in mg./kg.

A further experiment has as its system Kleb. pneumonise 8045. The experiment can be described thus: Minimum inhibitory concentration, serial dilution in synthetic bacterial growth medium. It counts as cell-based. The conditions noted are these: 35-37 °C, 16-20 hours, value in parentheses: a higher concentration did not always inhibit growth. As for the experimental part: as §1
In a further experiment the test system is E. coli Juhl. Described as above. The class given is cell-based. The conditions noted are these: 35-37 °C, 16-20 hours, value in parentheses: a higher concentration did not always inhibit growth. As for the experimental part:
as §1

A further experiment deals with Shigella sonnei 9290. Described as above. It counts as cell-based. The conditions noted are these: 35-37 °C, 16-20 hours, value in parentheses: a higher concentration did not always inhibit growth. The protocol: as §1

Turning to `N[C@H](CF)C(=O)N[C@@H](CCC(=O)O)C(=O)O` [Example 3, βF-D-Ala-L-Glu], the Minimum inhibitory concentration with Bacillus subtilis 9466 was 3.1; in the experiment with Strep. faecalis 10541, 50; in the experiment on Enterococcus 89, 25; in the experiment on Staph. aureus Smith, 800.

Turning to `N[C@H](CF)C(=O)N[C@@H](Cc1ccccc1)C(=O)O` [Example 2, β-fluoro-D-alanyl-L-phenylalanine], the values for the Minimum inhibitory concentration with Bacillus subtilis 9466, in the experiment on Strep. faecalis 10541 and in the experiment on Enterococcus 89 were 3.1, 0.78 and 25, respectively. Also, the “CD50, Peptide” value in the experiment with Staph. aureus (Smith) was in the range of 75 to 150 mg/kg.

`C[C@H](NC(=O)[C@H](N)CF)C(=O)O` [Example 1, β-fluoro-D-alanyl-L-alanine] had a Minimum inhibitory concentration with Enterococcus 89 of 200. Besides, the “CD50, Peptide” value in the experiment with Staph. aureus (Smith) was 9.4 mg/kg.

With `CC(C)(NC(=O)[C@H](N)CF)C(=O)O` [Example 5, βF-D-Ala-Aibu], the Minimum inhibitory concentration with Strep. faecalis 10541 is 800; in the experiment with Kleb. pneumonise 8045 it was 800; in the experiment with Enterococcus 89 it was 25; in the experiment with Staph. aureus Smith it was 800.

Consider `CC(C)[C@H](NC(=O)[C@H](N)CF)C(=O)O` [Example 6, βF-D-Ala-L-Val], for which the Minimum inhibitory concentration with E. coli Juhl is 800; with Kleb. pneumonise 8045 it was 800; in the experiment on Enterococcus 89, 6.2; in the experiment with Staph. aureus Smith, 800.

Turning to `CC(C)C[C@H](NC(=O)[C@H](N)CF)C(=O)O` [Example 4, F-D-Ala-L-Leu], the Minimum inhibitory concentration in the experiment on Bacillus subtilis 9466 stood at 6.2; with Strep. faecalis 10541 it was 3.1; in the experiment with E. coli Juhl, 800; in the experiment with Kleb. pneumonise 8045, 800; in the experiment with Shigella sonnei 9290 it was 800; in the experiment with Enterococcus 89, 25. For the same molecule, the Minimum inhibitory concentration with Staph. aureus Smith is 800.
